From patent US7357832B2, “Water base pigment ink for ink-jet recording, ink cartridge accommodating the same, and ink-jet recording method” (Brother Kogyo Kabushiki Kaisha, priority 2004, dated 2008)

experiment: saturation vapor pressure; assay type: physicochemical

| SMILES | Saturation vapor pressure [hPa] |
| --- | --- |
| CCCOC(C)COC(C)CO (centres unmarked) [DPGPE, dipropylene glycol-n-propyl ether] | 0.03 |
| CCOCC(C)O (centres unmarked) [PGEE, propylene glycol ethyl ether] | 9.4 |
| COCC(C)OC(C)=O (centres unmarked) [PGMEA, propylene glycol methyl ether acetate] | 5 |

Other lines, results leading:

| Saturation vapor pressure [hPa] | SMILES |
| --- | --- |
| 8.71 | COCC(C)O (centres unmarked) [PGME, propylene glycol methyl ether] |
| 2.21 | CCCOCC(C)O (centres unmarked) [PGPE, propylene glycol-n-propyl ether] |
